The test system of one series is P. obtusus P2O. As to the kind of experiment: Relative activities of P. obtusus P2O on pyranose substrates. It counts as biochemical. As to conditions: about 1% (w/v) substrate; D-glucose = 100. Here is the method: The P2O enzyme preparation from Example II was purified further using DEAE chromatography in 30 mM TRIS-HCl, pH 8.5, containing 2 mM EDTA and 10 ug/ml PMSF. The sample was eluted from a 5×16 cm column using a gradient of 0-300 mM NaCl. P2O activity was monitored using the orthodianisidine colorometric assay for the peroxide co-product, essentially as described by Ruelius et al., Biochim et Biophys. Acta 167, 493-500 (1968). P2O activity eluted at about 50 mM NaCl. Fractions containing the peak activity were pooled and concentrated to 0.5 ml by ultrafiltration using Amicon filters obtained from Amicon Corp. (Danvers, MA). Biogel P300 was obtained from Biorad Laboratories (Richmond, CA). The sample was further purified by molecular sieve chromatography using a 1.5×95 cm Biogel P300 column in 100 mM sodium phosphate, pH 7 buffer. The P2O activity eluted at a sharp peak corresponding to an apparent native molecular weight of about 290,000 daltons.
The enzyme appears to contain one covalently bound flavin molecule per subunit (detectable as UV-fluorescence in the 68,000 dalton SDS-PAGE band), and has absorption maxima at 276, 357 and 456 nm. The enzyme has a sedimentation coefficient of about 11.4, as determined by sucrose gradient ultracentrifugation. The relative activities of the enzyme, on D-glucose, L-sorbose, D-xylose, and D-gluconolactone are 100: 80: 48: 12, respectively, at about 1% (w/v) substrate concentration. As noted above with respect to FIG. 2, the enzyme has a broad pH optimum of between about 4.5 and 5.5.

The next series addresses T1, C. versicolor P2O (Trametes versicolor, UniProt P79076).
T1 construct: A single band having a molecular weight of about 65,000 was observed when the enzyme was analyzed by SDS-PAGE; made in house; host or cells: C. versicolor itself (native producer; high-producer culture selected from NRRL 15152 / CMCC 0748)
In words: Relative activities of C. versicolor P2O on pyranose substrates. Format: biochemical. As to conditions: 1% (w/v) substrate; D-glucose = 100. On the procedure: The enzyme was applied to a 2.6×40 cm DEAE column, washed, and eluted using a 0-300 mM NaCl gradient. The P2O elutes at about 220 mM. Portions of each fraction were assayed for P2O activity, by monitoring peroxide generation conventionally. Protein concentration was also determined by a conventional method. The fractions containing P2O activity were pooled and concentrated by ultrafiltration with an Amicon PM10 filter obtained from Amicon Corp. Peak fractions were dialyzed into 30 mM sodium acetate (pH 5.5), adjusted to 1.5M NaCl and loaded onto a phenylsepharose column. The P2O was eluted with a 0-1.5M NaCl gradient in 50 mM sodium acetate, pH 5.5. The enzyme eluted at about 1.1M NaCl. Fractions containing the peak activity were pooled and concentrated to 0.5 ml by Amicon PM30 ultrafiltration and sized according to native molecular weight using a 1.5×95 cm Biogel P300 column. Elution was at 0.1 ml/minute with 100 mM sodium phosphate, pH 7.0. Using known molecular weight markers in the column, the enzyme's apparent native molecular weight was calculated to be about 130,000 daltons. A single band having a molecular weight of about 65,000 was observed when the enzyme was analyzed by SDS-PAGE. The enzyme thus appears to be a homodimer. The enzyme was judged to be about 95% pure, based on the staining intensity of protein bands in SDS-PAGE.
The relative activities of the enzyme on the substrates D-glucose, L-sorbose, D-xylose and delta-D-gluconolactone are 100: 74: 41: 6, respectively, at 1% (w/v) substrate concentration. The enzyme has a pH optimum of about 5.0.

The next series concerns L. betulinus P2O. In words: Relative activities of L. betulinus P2O on pyranose substrates. Format: biochemical. The following applies: 20 mM substrate; D-glucose = 100. Here is the method:
The resulting clear yellow supernatant was further purified using DEAE chromatography in 30 mM TRIS-HCl, pH 8.5, and eluted from the 5×16 cm column using a 0-300 mM NaCl gradient. The protein eluted at about 75 mM NaCl. Fractions containing the peak of P2O activity were pooled and concentrated to 0.5 ml by Amicon PM30 ultrafiltration, and then fractionated, according to native molecular weight, using a 1.5×95 cm Biogel P300 column. The column was run at a flow rate of 0.1 ml per minute, using 100 mM sodium phosphate, pH 7.0. The protein eluted in a fraction corresponding to an apparent native molecular weight of about 300,000 daltons. […] Based on the molecular weight data, the protein appears to be a homotetramer.
The enzyme contains a covalently attached flavin on each subunit, and has absorption maxima at 275, 360, and 450 nm. The relative activities of the purified enzyme on the pyranose substrates D-glucose, L-sorbose, D-xylose and delta-D-gluconolactone are 100: 43: 43: 26, respectively, at 20 mM substrate concentration. The enzyme has a broad pH optimum between about 5 and 6.

A short description of series [1]: Nonenzymatic breakdown of glucosone (UV scan). It counts as physicochemical. The following applies: 0.5% solution. The source says: Secondly, studies indicate that pure glucosone undergoes relatively rapid, nonenzymatic breakdown above a pH of about 7.0. In one experiment, a 0.5% solution of highly purified glucosone (prepared by enzymatic conversion of glucose by a purified P. obtusus P2O enzyme at pH 4.4) was brought to pH 7.0 in a buffered solution. Immediately thereafter, the solution was scanned spectrophotometrically in the UV range between 200 and 350 nm, at one minute intervals.

Series [2] is described as follows: Glucosone breakdown on control of reaction pH by base addition. It counts as physicochemical. The following applies: NaOH versus buffer such as 1M sodium bicarbonate or 1M TRIS-HCl. On the procedure: Attempts to control reaction pH by the periodic addition of base have not been entirely successful. […] Therefore, in order to reduce glucosone breakdown, the base must be added in a manner which minimizes local regions of high pH in the solution. […] Introduction of the buffer with rapid mixing further reduces glucosone breakdown, presumably by reducing locally-elevated pH levels which occur when the buffer is added. It was noted above that even pH's in the range of 7.0 can lead to relatively rapid nonenzymatic glucosone breakdown. Ideally therefore, where high purity and yield are desired, one would like to avoid adding base to the reaction to offset the buildup of acidic by-products.

For series [3] the following is noted: Ericsson et al. and Lindberg et al.; cited from earlier work.

The text below walks through data of patent US4569915A, “P. obtusus strain” (Cetus Corporation, priority 1984, dated 1986).

`OC[C@H]1OC(O)[C@H](O)[C@@H](O)[C@@H]1O` (stereo partly drawn) [D-glucose]: the “relative activity of P. obtusus P2O on substrate” value with P. obtusus P2O is given as 100. For the same compound, the “relative activity of C. versicolor P2O on substrate” value on C. versicolor P2O is 100. In the series on L. betulinus P2O, the “relative activity of L. betulinus P2O on substrate” value is reported as 100.
`O=C1O[C@H](CO)[C@@H](O)[C@H](O)[C@H]1O` [delta-D-gluconolactone]: the “relative activity of P. obtusus P2O on substrate” value in the series with P. obtusus P2O is reported as 12. The “relative activity of C. versicolor P2O on substrate” value on C. versicolor P2O amounted to 6. Besides, in the series on L. betulinus P2O, the “relative activity of L. betulinus P2O on substrate” value is given as 26.
On to `O=CC(=O)[C@@H](O)[C@H](O)[C@H](O)CO` [glucosone, D-arabino-2-hexosulose], for which the “310 nm peak (nonenzymatic breakdown)” value in series [1] (pH 6.0, several minutes) is given as “no initial peak at 310 nm was observed nor did one form”. Moreover, in series [1] (pH 7.0, five minute period), the “increase of 310 nm peak (nonenzymatic breakdown)” value is listed as “increasing several-fold”. In addition, in series [2], the “glucosone breakdown with periodic NaOH addition” value is on record as “more glucosone breakdown”. Besides, in series [3], the “stability under alkaline conditions” value is “breaks down under alkaline conditions”.
In the case of `O=C(CO)[C@@H](O)[C@H](O)[C@@H](O)CO` [L-sorbose], the “relative activity of P. obtusus P2O on substrate” value in the series on P. obtusus P2O was 80. Also, the “relative activity of C. versicolor P2O on substrate” value on C. versicolor P2O amounted to 74. The “relative activity of L. betulinus P2O on substrate” value in the series on L. betulinus P2O stood at 43.
For `OC1OC[C@@H](O)[C@H](O)[C@H]1O` (stereo partly drawn) [D-xylose], the “relative activity of P. obtusus P2O on substrate” value in the series on P. obtusus P2O came out at 48. For the same compound, on C. versicolor P2O, the “relative activity of C. versicolor P2O on substrate” value came out at 41. Moreover, the “relative activity of L. betulinus P2O on substrate” value with L. betulinus P2O turned out to be 43.
